64 molecules from paper PMC9295568, “Dual Inhibition of Vacuolar-ATPase and TMPRSS2 Is Required for Complete Blockade of SARS-CoV-2 Entry into Cells” (Antimicrobial Agents and Chemotherapy, 2022) can be followed below.

Counter-ions that a name gives are not always drawn. Like-named read-outs stand apart in the source and are kept apart here.

The assay concerns endosomal acidification in Vero cells. Briefly: cells. Type of assay: cell-based. The settings on record: for inhibition at 40 µM: Chlorocebus sabaeus, read-out: Percent Inhibition (%) of endosomal acidification. The protocol: Inhibition of endosomal acidification was measured using LysoTracker Red DND-99 (ThermoFisher). […] Data were plotted using Prism 9 (GraphPad).
Setting [1] is: Vero cells, 40 μM, singlet (n=1).

A word on the inhibition: it is the drop in the measured response relative to a control, in per cent. With `CCCCCCCCCc1ccc(OCCOCCOCCOCCOCCOCCOCCOCCOCCO)cc1` [NONOXYNOL-9], under setting [1], the inhibition at 40 µM is 91%. On the same count and under the same terms, next, `[H]/N=C(/N)N[C@H]1[C@H](O)[C@@H](O)[C@H](O[C@@H]2O[C@@H](C)[C@](O)(C=O)[C@H]2O[C@@H]2O[C@@H](CO)[C@H](O)[C@@H](O)[C@@H]2NC)[C@@H](N/C(N)=N\[H])[C@@H]1O` [STREPTOMYCIN SULFATE]: 101%; `CCOC(=O)Nc1ccc(NCc2ccc(F)cc2)nc1N` [[…]]: 50%. Turning to `C#C[C@]1(O)CC[C@H]2[C@@H]3CCC4=CCCC[C@@H]4[C@H]3CC[C@@]21C` [LYNESTRENOL], under setting [1], the inhibition at 40 µM worked out at 86%. Still for that read-out and setting: the same measure for `Nc1c2ccccc2nc2ccccc12` [AMINACRINE]: 69%; for `O=C(c1ccc(OCCN2CCCCC2)cc1)c1c(-c2ccc(O)cc2)sc2cc(O)ccc12` [RALOXIFENE HYDROCHLORIDE]: 56%. `C[C@@H]1[C@H](O)[C@@H](C)/C=C/C=C/C=C/C=C/C=C/C=C/C=C/[C@H](O[C@@H]2O[C@H](C)[C@@H](O)[C@H](N)[C@@H]2O)C[C@@H]2O[C@](O)(C[C@@H](O)C[C@@H](O)[C@H](O)CC[C@@H](O)C[C@@H](O)CC(=O)O[C@H]1C)C[C@H](O)[C@H]2C(=O)O` [AMPHOTERICIN B]: the inhibition at 40 µM under setting [1] was determined as 60%. Consider `CC(CN(C)C)CN1c2ccccc2CCc2ccccc21` (stereo not shown) [TRIMIPRAMINE MALEATE], for which the inhibition at 40 µM under setting [1] is 56%.

Regarding `COC1=C(OC)C(=O)C(CCCCCCCCCCO)=C(C)C1=O` [IDEBENONE], under setting [1], the inhibition at 40 µM worked out at 63%. Same read-out and setting: next, `OCCN1CCN(CCCN2c3ccccc3Sc3ccc(Cl)cc32)CC1` [PERPHENAZINE]: 93%. Still for that read-out and setting: next, `CCOC(=O)[C@H](CCc1ccccc1)N[C@H]1CCc2ccccc2N(CC(=O)O)C1=O` [BENAZEPRIL HYDROCHLORIDE]: 64%. Same read-out and setting: next, `CC(C)c1ccc2c(c1)CC[C@H]1[C@](C)(CN)CCC[C@]21C` [18-AMINOABIETA-8,11,13-TRIENE SULFATE]: 67%. On to `Cc1cc2c(C(C)C)c(O)c(O)c(C=O)c2c(O)c1-c1c(C)cc2c(C(C)C)c(O)c(O)c(C=O)c2c1O` [GOSSYPOL], for which the inhibition at 40 µM under setting [1] came out at 80%. As to `COc1ccc(CCN2CCC(Nc3nc4ccccc4n3Cc3ccc(F)cc3)CC2)cc1` [ASTEMIZOLE], the inhibition at 40 µM under setting [1] was 50%. For the molecule `Clc1ccc(C(Cn2ccnc2)OCc2ccsc2Cl)c(Cl)c1` (stereo not shown) [TIOCONAZOLE], the inhibition at 40 µM (Vero) stood at 94%.

For the molecule `CC(CN1c2ccccc2Sc2ccccc21)N(C)C` (stereo not shown) [PROMETHAZINE HYDROCHLORIDE], the inhibition at 40 µM under setting [1] turned out to be 56%.

In the case of `CC(CN(C)C)CN1c2ccccc2Sc2ccccc21.CC(CN(C)C)CN1c2ccccc2Sc2ccccc21.O=C(O)C(O)C(O)C(=O)O` (stereo not shown) [TRIMEPRAZINE TARTRATE], under setting [1], the “Percent Inhibition (%) of endosomal acidification” value (“Percent Inhibition (%)” below) amounted to 78%. Take `C[C@@H](NCCCc1cccc(C(F)(F)F)c1)c1cccc2ccccc12` [CINACALCET HYDROCHLORIDE]: the inhibition at 40 µM under setting [1] turned out to be 91%. As for `CC(C)COCC(CN(Cc1ccccc1)c1ccccc1)N1CCCC1` (stereo not shown) [BEPRIDIL HYDROCHLORIDE], the inhibition at 40 µM under setting [1] stood at 71%.

For `CN1CCN(CC/C=C2/c3ccccc3Sc3ccc(S(=O)(=O)N(C)C)cc32)CC1` [THIOTHIXENE], the inhibition at 40 µM under setting [1] worked out at 80%. For `CSc1ccc2c(c1)N(CCC1CCCCN1C)c1ccccc1S2` (stereo not shown) [THIORIDAZINE HYDROCHLORIDE], where the note is “Vero”, the inhibition at 40 µM came to 92%. As to `CCOC(=O)C1=C(COCCN)NC(C)=C(C(=O)OC)C1c1ccccc1Cl` (stereo not shown) [AMLODIPINE BESYLATE], under setting [1], the inhibition at 40 µM was found to be 76%. With `Nc1ccc2cc3ccc(N)cc3nc2c1` [PROFLAVINE HEMISULFATE], the inhibition at 40 µM under setting [1] was 54%. On the same count and under the same terms, next, `CCCCCCCCNC(C)C(O)c1ccc(SC(C)C)cc1` (stereo not shown) [SULOCTIDIL]: 94%; `C=C(c1ccc(C(=O)O)cc1)c1cc2c(cc1C)C(C)(C)CCC2(C)C` [BEXAROTENE]: 64%. For the molecule `CN1CCC(=C2c3ccccc3C=Cc3ccccc32)CC1` [CYPROHEPTADINE HYDROCHLORIDE], the inhibition at 40 µM under setting [1] was 67%. The same measure, in the same setting: next, `CC(C)N1CCN(c2ccc(OCC3COC(Cn4cncn4)(c4ccc(Cl)cc4Cl)O3)cc2)CC1` (stereo not shown) [TERCONAZOLE]: 64%; `CCN(CC)CCOc1ccc(C(=C(Cl)c2ccccc2)c2ccccc2)cc1` [CLOMIPHENE CITRATE]: 69%; `C=CC(C)(O)CCC=C(C)CCC=C(C)C` (mixture of isomers) [NEROLIDOL]: 66%. Same read-out and setting: next, `CCCCc1oc2ccc(NS(C)(=O)=O)cc2c1C(=O)c1ccc(OCCCN(CCCC)CCCC)cc1` [DRONEDARONE HYDROCHLORIDE]: 85%; `CC(C)/N=c1\cc2n(-c3ccc(Cl)cc3)c3ccccc3nc-2cc1Nc1ccc(Cl)cc1` [CLOFAZIMINE]: 80%; `CCC(=O)O[C@H]1CC[C@H]2[C@@H]3CCC4=CC(=O)CC[C@]4(C)[C@H]3CC[C@]12C` [TESTOSTERONE PROPIONATE]: 64%. Same read-out and setting: next, `Fc1ccc([C@@H]2CCNC[C@H]2COc2ccc3c(c2)OCO3)cc1` [PAROXETINE HYDROCHLORIDE]: 65%. With `CNCC[C@H](Oc1cccc2ccccc12)c1cccs1` [DULOXETINE HYDROCHLORIDE], the inhibition at 40 µM (Vero) amounted to 59%. Take `OC(c1cc(C(F)(F)F)nc2c(C(F)(F)F)cccc12)C1CCCCN1` (stereo not shown) [MEFLOQUINE]: the inhibition at 40 µM under setting [1] came to 64%. As to `CN1CCCC(n2nc(Cc3ccc(Cl)cc3)c3ccccc3c2=O)CC1` (stereo not shown) [AZELASTINE HYDROCHLORIDE], the inhibition at 40 µM under setting [1] was 59%.

As for `C[CH2][Hg][S]c1ccccc1C(=O)[O-].[Na+]` [THIMEROSAL], for the setting “40 µM”, the “Percent Inhibition (%)” value was found to be 81%. Consider `CC(=O)O[C@@H]1CC[C@@]2(C)[C@@H](CC[C@@H]3[C@@H]2CC[C@]2(C)C(=O)CC[C@@H]32)C1` [AN[…]], for which, under setting [1], the inhibition at 40 µM was 50%. On the same count and under the same terms, the same measure for `CC(=O)c1ccc2c(c1)N(CCCN1CCC(CCO)CC1)c1ccccc1S2` [PIPERACETAZINE]: 78%.

Turning to BENZALKONIUM CHLORIDE, the “Percent Inhibition (%)” value under setting [1] is on record as 88%. Still for that read-out and setting: the same measure for MEPARTRICIN: 52%. With `CC/C(=C(\c1ccccc1)c1ccc(OCCN(C)C)cc1)c1ccccc1` [TAMOXIFEN CITRATE], the inhibition at 40 µM under setting [1] is 82%.

For `CN1CCN(CCCN2c3ccccc3Sc3ccc(C(F)(F)F)cc32)CC1` [TRIFLUOPERAZINE HYDROCHLORIDE], the inhibition at 40 µM under setting [1] stood at 77%. Consider `O=C(Nc1ccc(Oc2ccc(Cl)cc2)c(Cl)c1)c1cc(I)cc(I)c1O` [RAFOXANIDE], for which the inhibition at 40 µM under setting [1] stood at 68%. `CN1CCN(CCCN2c3ccccc3Sc3ccc(Cl)cc32)CC1` [PROCHLORPERAZINE EDISYLATE]: the inhibition at 40 µM under setting [1] worked out at 73%. `C[C@@]12C(=O)OC(=O)[C@]1(C)[C@H]1CC[C@@H]2O1` [CANTHARIDIN]: the inhibition at 40 µM under setting [1] worked out at 65%. On the same count and under the same terms, the same measure for `Clc1ccc(COC(Cn2ccnc2)c2ccc(Cl)cc2Cl)cc1` (stereo not shown) [ECONAZOLE NITRATE]: 76%.

As for `CC1(C)C=Cc2c(c3c(c4c(=O)c(-c5ccc(O)c(O)c5)coc24)OC(C)(C)CC3)O1` [ISOPOMIFERIN], the “Percent Inhibition (%)” value under setting [1] is 85%. For `CCN(CC)CCOc1ccc2c(c1)C(=O)c1cc(OCCN(CC)CC)ccc1-2` [TILORONE], the inhibition at 40 µM under setting [1] was 59%.

`OC1(c2ccc(Cl)c(C(F)(F)F)c2)CCN(CCCC(c2ccc(F)cc2)c2ccc(F)cc2)CC1` [PENFLURIDOL]: the inhibition at 40 µM under setting [1] stood at 61%. The same measure, in the same setting: next, `CN(C)[C@@H](CCOc1cccc2ccccc12)c1ccccc1` [DAPOXETINE HYDROCHLORIDE]: 91%; `CCN(CC)C(C)CN1c2ccccc2Sc2ccccc21` (stereo not shown) [ETHOPROPAZINE HYDROCHLORIDE]: 70%; `CC1=C(O)C(=O)C=C2C1=CC=C1[C@@]2(C)CC[C@@]2(C)[C@@H]3C[C@](C)(C(=O)O)CC[C@]3(C)CC[C@]12C` [CELASTROL]: 92%.

On to `CN(C)CCCN1c2ccccc2Sc2ccc(C(F)(F)F)cc21` [TRIFLUPROMAZINE HYDROCHLORIDE], for which the inhibition at 40 µM under setting [1] amounted to 86%. Take `COc1c(O)cc2oc3cc(O)c(CC=C(C)C)c(O)c3c(=O)c2c1CC=C(C)C` [alpha-MANGOSTIN]: under setting [1], the “Percent Inhibition (%)” value was 86%. With `CC1CC(OC(=O)C(O)c2ccccc2)CC(C)(C)C1` (stereo not shown) [CYCLANDELATE], the inhibition at 40 µM under setting [1] was determined as 52%. Consider `COc1cc(-c2ccc(/N=N/c3ccc4c(S(=O)(=O)O)cc(S(=O)(=O)O)c(N)c4c3O)c(OC)c2)ccc1/N=N/c1ccc2c(S(=O)(=O)O)cc(S(=O)(=O)O)c(N)c2c1O` [CHICAGO SKY BLUE], for which, under setting [1], the inhibition at 40 µM stood at 54%.

As for `Cc1c(-c2ccc(O)cc2)n(Cc2ccc(OCCN3CCCCCC3)cc2)c2ccc(O)cc12` [BAZEDOXIFENE ACETATE], the inhibition at 40 µM under setting [1] is 89%. On the same count and under the same terms, the same measure for `CN(C)CCCN1c2ccccc2CCc2ccccc21` [IMIPRAMINE HYDROCHLORIDE]: 54%. The same measure, in the same setting: the same measure for `CN(C)c1ccc2nc3ccc(=[N+](C)C)cc-3sc2c1` [METHYLENE BLUE]: 85%; for `CC(NCCC(c1ccccc1)c1ccccc1)c1ccccc1` (stereo not shown) [FENDILINE HYDROCHLORIDE]: 73%.

For `CN(C)CCCN1c2ccccc2CCc2ccc(Cl)cc21` [CLOMIPRAMINE HYDROCHLORIDE], the inhibition at 40 µM under setting [1] was found to be 83%. The same measure, in the same setting: the same measure for `C[C@@H]1CC[C@@]2(OC1)O[C@H]1[C@@H](O)[C@H]3[C@@H]4CC[C@H]5C[C@@H](O[C@@H]6O[C@H](CO)[C@H](O[C@@H]7O[C@H](CO)[C@@H](O)[C@H](O[C@@H]8OC[C@@H](O)[C@H](O)[C@H]8O)[C@H]7O[C@@H]7O[C@H](CO)[C@H](O)[C@H](O[C@@H]8O[C@H](CO)[C@@H](O)[C@H](O)[C@H]8O)[C@H]7O)[C@H](O)[C@H]6O)[C@H](O)C[C@]5(C)[C@H]4CC[C@]3(C)[C@H]1[C@@H]2C` [DIGITONIN]: 79%; for `O=C(Nc1ccccc1)OCC(CN1CCCCC1)OC(=O)Nc1ccccc1` (stereo not shown) [DIPERODON HYDROCHLORIDE]: 54%.
